Measured values from patent US7396837B2, “Antitumoral analogs of lamellarins” (Pharma Mar, S.A.U., priority 2002, dated 2008).
Where two headings read alike, the source gives them in different places.

What was measured:
Assay type in all cases: cell-based
[1] = system: H-MEC-1; assay: SRB colorimetric cell growth inhibition assay, H-MEC-1; conditions: Homo sapiens, HMEC-1, H-MEC-1; for GI50: GI=growth inhibition; for IC (TGI): TGI=total growth inhibition (cytostatic effect), read-out: TGI H-MEC-1
Summary of the method: (§1)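 Growth and viability quantified by sulforhodamine B staining in 96-well microplates. Triplicate wells give mean ± SD; derived endpoints are GI, TGI (cytostatic) and LC (cytotoxic).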

[2] = as above; conditions: human, H-MEC-1 cells, H-MEC-1; LC=cell killing (cytotoxic effect); read-out: LC50 H-MEC-1
Summary of the method: as §1

[3] = system: A-549; assay: SRB colorimetric cell growth inhibition assay, A-549; conditions: Homo sapiens, A549, A-549; for GI50: GI=growth inhibition, read-out: GI50 A-549; for CC50: read-out: LC50 A-549; for IC (TGI): read-out: TGI A-549
Summary of the method: (§2)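 Sulforhodamine B colorimetric readout measured cell growth and viability after continuous compound exposure of human cancer cell lines in 96-well plates. Triplicate wells gave mean ± SD, from which growth inhibition (GI), cytostatic total growth inhibition (TGI) and cytotoxic cell killing (LC) were calculated.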

[4] = system: LoVo-Dox; assay: SRB colorimetric cell growth inhibition assay, LoVo-Dox (MDR); conditions: Homo sapiens, LOVO-DOX; for GI50: GI=growth inhibition, read-out: GI50 LOVO-DOX; for CC50: read-out: LC50 LOVO-DOX; for IC (TGI): read-out: TGI LOVO-DOX
Summary of the method: as §2

[5] = system: DU-145; assay: SRB colorimetric cell growth inhibition assay, DU-145; conditions: Homo sapiens, DU-145, DU-145; for GI50: GI=growth inhibition, read-out: GI50 DU-145; for CC50: LC=cell killing (cytotoxic effect), read-out: LC50 DU-145; for IC (TGI): TGI=total growth inhibition (cytostatic effect), read-out: TGI DU-145
Summary of the method: as §2

[6] = system: K-562; assay: SRB colorimetric cell growth inhibition assay, K-562; conditions: Homo sapiens, K562, K-562; for GI50: GI=growth inhibition, read-out: GI50 K-562; for CC50: read-out: LC50 K-562; for IC (TGI): read-out: TGI K-562
Summary of the method: as §2

[7] = system: IGROV; assay: SRB colorimetric cell growth inhibition assay, IGROV; conditions: Homo sapiens, IGROV; for GI50: GI=growth inhibition, read-out: GI50 IGROV; for CC50: LC=cell killing (cytotoxic effect), read-out: LC50 IGROV; for IC (TGI): TGI=total growth inhibition (cytostatic effect), read-out: TGI IGROV
Summary of the method: as §2

[8] = system: IGROV-ET; assay: SRB colorimetric cell growth inhibition assay, IGROV-ET (ET-743 resistant); conditions: Homo sapiens, IGROV-ET; for GI50: GI=growth inhibition, read-out: GI50 IGROV-ET; for CC50: LC=cell killing (cytotoxic effect), read-out: LC50 IGROV-ET; for IC (TGI): TGI=total growth inhibition (cytostatic effect), read-out: TGI IGROV-ET
Summary of the method: as §2

[9] = system: PANC-1; assay: SRB colorimetric cell growth inhibition assay, PANC-1; conditions: Homo sapiens, PANC-1, PANC-1; for GI50: GI=growth inhibition, read-out: GI50 PANC-1; for CC50: read-out: LC50 PANC-1; for IC (TGI): read-out: TGI PANC-1
Summary of the method: as §2

[10] = system: HT-29; assay: SRB colorimetric cell growth inhibition assay, HT-29; conditions: Homo sapiens, HT-29, HT-29; for GI50: GI=growth inhibition, read-out: GI50 HT-29; for CC50: read-out: LC50 HT-29; for IC (TGI): read-out: TGI HT-29
Summary of the method: as §2

[11] = system: SK-MEL-28; assay: SRB colorimetric cell growth inhibition assay, SK-MEL-28; conditions: Homo sapiens, SK-MEL-28, MEL-28; for GI50: GI=growth inhibition, read-out: GI50 MEL-28; for CC50: LC=cell killing (cytotoxic effect), read-out: LC50 MEL-28; for IC (TGI): TGI=total growth inhibition (cytostatic effect), read-out: TGI MEL-28
Summary of the method: as §2

[12] = system: LNCaP; assay: SRB colorimetric cell growth inhibition assay, LNCaP; conditions: Homo sapiens, LNCaP, LN-caP
Summary of the method: as §2

[13] = system: SKOV-3; assay: SRB colorimetric cell growth inhibition assay, SKOV-3; conditions: Homo sapiens; for GI50: SK-OV-3, SKOV-3, GI=growth inhibition, read-out: GI50 SKOV-3; for CC50 / IC (TGI): SK-OV-3, SKOV-3; for CC50: LC=cell killing (cytotoxic effect), read-out: LC50 SKOV-3; for IC (TGI): TGI=total growth inhibition (cytostatic effect), read-out: TGI SKOV-3
Summary of the method: as §1

[14] = system: SK-BR-3; assay: SRB colorimetric cell growth inhibition assay, SK-BR-3; conditions: Homo sapiens, SK-BR-3, SK-BR-3; for GI50: GI=growth inhibition, read-out: GI50 SK-BR-3; for CC50: LC=cell killing (cytotoxic effect), read-out: LC50 SK-BR-3; for IC (TGI): TGI=total growth inhibition (cytostatic effect), read-out: TGI SK-BR-3
Summary of the method: as §2

[15] = system: LoVo; assay: SRB colorimetric cell growth inhibition assay, LoVo; conditions: Homo sapiens, LoVo; for GI50: GI=growth inhibition, read-out: GI50 LOVO; for CC50: read-out: LC50 LOVO; for IC (TGI): read-out: TGI LOVO
Summary of the method: as §2

[16] = LC=cell killing (cytotoxic effect)
[17] = TGI=total growth inhibition (cytostatic effect)
[18] = cell killing (cytotoxic effect)
[19] = total growth inhibition (cytostatic effect)

SMILES: COc1cc2c(cc1OC)-c1c(-c3ccc(OC(=O)[C@H](Cc4ccccc4)NC(=O)OC(C)(C)C)c(OC)c3)c3c4cc(OC)c(OC(=O)[C@H](Cc5ccccc5)NC(=O)OC(C)(C)C)cc4oc(=O)c3n1CC2 [Compound 84]
- GI50 [1]: 682 nM
- IC (TGI) [1]: 1.86 µM
- CC50 [2]: 5.96 µM
- GI50 [3]: 2.66 µM
- CC50 [3, 16]: 9.03 µM
- IC (TGI) [3, 17]: 4.91 µM
- GI50 [4]: 9.9 µM
- CC50 [4, 16]: 9.9 µM
- IC (TGI) [4, 17]: 9.9 µM
- GI50 [5]: 3.41 µM
- CC50 [5]: 9.9 µM
- IC (TGI) [5]: 8.36 µM
- GI50 [6]: 731 nM
- CC50 [6, 16]: 9.9 µM
- IC (TGI) [6, 17]: 3.3 µM
- GI50 [7]: 2410 nM
- CC50 [7]: 9.9 µM
- IC (TGI) [7]: 6.28 µM
- GI50 [8]: 4260 nM
- CC50 [8]: 9.9 µM
- IC (TGI) [8]: 8.25 µM
- GI50 [9]: 501 nM
- CC50 [9, 16]: 9.9 µM
- IC (TGI) [9, 17]: 5.47 µM
- GI50 [10]: 2.34 µM
- CC50 [10, 16]: 9.9 µM
- IC (TGI) [10, 17]: 9.9 µM
- GI50 [11]: 2070 nM
- CC50 [11]: 7.21 µM
- IC (TGI) [11]: 3.86 µM
- GI50 ([12]; GI=growth inhibition, read-out: GI50 LN-caP): 710 nM
- CC50 ([12]; LC=cell killing (cytotoxic effect), read-out: LC50 LN-caP): 5.21 µM
- IC (TGI) ([12]; TGI=total growth inhibition (cytostatic effect), read-out: TGI LN-caP): 2.01 µM
- GI50 [13]: 4.58 µM
- CC50 [13]: 9.9 µM
- IC (TGI) [13]: 9.9 µM
- GI50 [14]: 460 nM
- CC50 [14]: 9.9 µM
- IC (TGI) [14]: 0.95 µM
- GI50 [15]: 4.48 µM
- CC50 [15, 16]: 9.9 µM
- IC (TGI) [15, 17]: 9.9 µM

SMILES: COc1cc(-c2c3c4cc(OC)c(OC(=O)[C@H](C)NC(=O)OC(C)(C)C)cc4oc(=O)c3n3ccc4c(OC(=O)[C@H](C)NC(=O)OC(C)(C)C)c(OC)c(OC)cc4c23)ccc1OC(=O)[C@H](C)NC(=O)OC(C)(C)C [Compound 97]
- GI50 [1]: 33.7 nM
- IC (TGI) [1]: 0.0959 µM
- CC50 [2]: 9.59 µM
- GI50 [3]: 9.59 µM
- CC50 [3, 18]: 9.59 µM
- IC (TGI) [3, 19]: 9.59 µM
- GI50 [4]: 5.29 µM
- CC50 [4, 18]: 9.59 µM
- IC (TGI) [4, 19]: 9.59 µM
- GI50 [5]: 4.13 µM
- CC50 [5]: 9.59 µM
- IC (TGI) [5]: 9.59 µM
- GI50 [6]: 3200 nM
- CC50 [6, 18]: 9.59 µM
- IC (TGI) [6, 19]: 6.86 µM
- GI50 [7]: 186 nM
- CC50 [7]: 7.54 µM
- IC (TGI) [7]: 1.94 µM
- GI50 [8]: 678 nM
- CC50 [8]: 9.59 µM
- IC (TGI) [8]: 3.33 µM
- GI50 [9]: 4470 nM
- CC50 [9, 18]: 9.59 µM
- IC (TGI) [9, 19]: 9.59 µM
- GI50 [10]: 9.59 µM
- CC50 [10, 18]: 9.59 µM
- IC (TGI) [10, 19]: 9.59 µM
- GI50 [11]: 262 nM
- CC50 [11]: 9.59 µM
- IC (TGI) [11]: 4.71 µM
- GI50 [13]: 6.01 µM
- CC50 [13]: 9.59 µM
- IC (TGI) [13]: 9.59 µM
- GI50 [14]: 1230 nM
- CC50 [14]: 9.59 µM
- IC (TGI) [14]: 3.58 µM
- GI50 [15]: 5.28 µM
- CC50 [15, 18]: 9.59 µM
- IC (TGI) [15, 19]: 9.59 µM
